Measurements published in patent US20240100065A1, “METHODS FOR TREATING RECEPTOR-INTERACTING PROTEIN KINASE 1-MEDIATED DISEASES” (Genzyme Corporation, priority 2022, published 2024).

Test: Safety and tolerability (TEAEs, PCSAs, laboratory tests) in phase 1 study Parts 1a, 1b, 2
Format: in vivo, healthy adult participants (human)
Method: This single ascending dose (SAD) study consisted of three parts: Part 1a, which is a phase 1, randomized, placebo-controlled, double-blind, sequential ascending single dose study; Part 1b, which is phase 1, open-label, sequential single dose study; and Part 2, which is an ascending 14-day repeated oral dose study.
Part 1a evaluated 4 sequential ascending dose levels of Compound 1 under fasted conditions: 10 mg, 20 mg, 30 mg, and 40 mg, each dose per cohort. Participants were fasted overnight for at least 8 hours before the morning dose and 2 hours after dosing.
Part 1b is an open-label study with two single dose levels of Compound 1, previously tested for safety/tolerability in SAD cohorts of Part 1a, were selected (10 mg and 40 mg) and sequentially administered under a fed condition, each dose per cohort. Participants were fasted overnight for at least 8 hours, and then fed with a light breakfast approximately 30 minutes before Compound 1 dosing. In both Part 1a and 1b, all participants received one single dose of treatment.
Part 2 was a randomized, double-blind, placebo-controlled study that evaluated 14-day multiple ascending oral doses of Compound 1 once daily (OD) or twice daily (BID) regimen under fasted conditions: 10 mg QD, 20 mg QD, 15 mg BID, and 20 mg BID. Participants fasted overnight for at least 8 hours before the morning dose and 2 hours after dosing on Day 1 and Day 14. All other morning doses were administered after an overnight fast and approximately 30 minutes before a breakfast snack. Sentinel dosing approach was followed where two of ten participants in each cohort were dosed the first day (n=1, Compound; n=1, placebo) in advance of the full cohort. The remaining 8 participants from each cohort were randomized to receive either Compound or placebo (randomized 7:1) on the following days with at least 48-hour interval from dosing of the sentinel participants, allowing a safety evaluation at the predicted steady state.
Safety and tolerability were assessed by physical examination, neurological examination, monitoring adverse events (AEs) and potentially clinically significant abnormalities (PCSAs) in clinical laboratory tests (hematology, clinical chemistry, and urinalysis), vital signs (body temperature, blood pressure and heart rate), and ECG parameters (heart rate, RR, PR, QRS, QT, QTcF, QTcB intervals) measured in the standard 12-lead ECG or ECGs extracted from 24-hour Holter ECG data.
Safety population included all participants who received at least one dose of study intervention (Compound 1 or placebo). All safety assessments (AEs, laboratory parameters, vital signs) were based on the review of individual values and were summarized using descriptive statistics. Safety analysis was focused on treatment-emergent period, defined as the time from the first investigational medicinal product (IMP) administration up to the end of study visit (included). AEs were coded according to the Medical Dictionary for Regulatory Activities (MedDRA, version 23.1 in Part 1a and Part 1b; version 24 in Part 2). Severity was graded from Grade 1 to 4 according to the Food and Drug Administration (FDA) Guidance for Industry. Number (%) of participants experiencing TEAEs and potentially clinically significant abnormality (PCSAs) in clinical chemistry, vital signs, and ECGs were summarized by dose level group.

SMILES: CC(C)(C(=O)N1CCOc2c(C#N)cncc2C1)C(F)F [Compound 1, 4-(3,3-difluoro-2,2-dimethyl-propanoyl)-3,5-dihydro-2H-pyrido[3,4-f] [1,4]oxazepine-9-carbonitrile]
- Any Grade ≥3 TEAE, participants (Part 1a single 10 mg fasted): 0 n
- Any TEAE, participants (Part 1a single 10 mg fasted): 2 n
- Any treatment-emergent AESI, participants (Part 1a single 10 mg fasted): 0 n
- Any treatment-emergent SAE, participants (Part 1a single 10 mg fasted): 0 n
- TEAE Blood creatine phosphokinase increased, participants (Part 1a single 10 mg fasted): 0 n
- TEAE Cardiac disorders, participants (Part 1a single 10 mg fasted): 1 n
- TEAE Dermatitis contact, participants (Part 1a single 10 mg fasted): 1 n
- TEAE Dizziness, participants (Part 1a single 10 mg fasted): 0 n
- TEAE Eye disorders, participants (Part 1a single 10 mg fasted): 0 n
- TEAE Fatigue, participants (Part 1a single 10 mg fasted): 0 n
- TEAE General disorders and administration site conditions, participants (Part 1a single 10 mg fasted): 0 n
- TEAE Headache, participants (Part 1a single 10 mg fasted): 0 n
- TEAE Investigations, participants (Part 1a single 10 mg fasted): 0 n
- TEAE Keratitis, participants (Part 1a single 10 mg fasted): 0 n
- TEAE Medical device site dermatitis, participants (Part 1a single 10 mg fasted): 0 n
- TEAE Musculoskeletal and connective tissue disorders, participants (Part 1a single 10 mg fasted): 0 n
- TEAE Myalgia, participants (Part 1a single 10 mg fasted): 0 n
- TEAE Nervous system disorders, participants (Part 1a single 10 mg fasted): 0 n
- TEAE Presyncope, participants (Part 1a single 10 mg fasted): 0 n
- TEAE Skin and subcutaneous tissue disorders, participants (Part 1a single 10 mg fasted): 1 n
- TEAE Skin irritation, participants (Part 1a single 10 mg fasted): 0 n
- TEAE Tachycardia, participants (Part 1a single 10 mg fasted): 0 n
- TEAE Thrombophlebitis, participants (Part 1a single 10 mg fasted): 0 n
- TEAE Vascular disorders, participants (Part 1a single 10 mg fasted): 0 n
- TEAE Ventricular extrasystoles, participants (Part 1a single 10 mg fasted): 1 n
- TEAE Vessel puncture site hypoaesthesia, participants (Part 1a single 10 mg fasted): 0 n
- TEAE Vessel puncture site pain, participants (Part 1a single 10 mg fasted): 0 n
- Any Grade ≥3 TEAE, participants (Part 1a single 20 mg fasted): 0 n
- Any TEAE, participants (Part 1a single 20 mg fasted): 1 n
- Any treatment-emergent AESI, participants (Part 1a single 20 mg fasted): 0 n
- Any treatment-emergent SAE, participants (Part 1a single 20 mg fasted): 0 n
- TEAE Blood creatine phosphokinase increased, participants (Part 1a single 20 mg fasted): 0 n
- TEAE Cardiac disorders, participants (Part 1a single 20 mg fasted): 1 n
- TEAE Dermatitis contact, participants (Part 1a single 20 mg fasted): 0 n
- TEAE Dizziness, participants (Part 1a single 20 mg fasted): 0 n
- TEAE Eye disorders, participants (Part 1a single 20 mg fasted): 0 n
- TEAE Fatigue, participants (Part 1a single 20 mg fasted): 0 n
- TEAE General disorders and administration site conditions, participants (Part 1a single 20 mg fasted): 0 n
- TEAE Headache, participants (Part 1a single 20 mg fasted): 1 n
- TEAE Investigations, participants (Part 1a single 20 mg fasted): 0 n
- TEAE Keratitis, participants (Part 1a single 20 mg fasted): 0 n
- TEAE Medical device site dermatitis, participants (Part 1a single 20 mg fasted): 0 n
- TEAE Musculoskeletal and connective tissue disorders, participants (Part 1a single 20 mg fasted): 0 n
- TEAE Myalgia, participants (Part 1a single 20 mg fasted): 0 n
- TEAE Nervous system disorders, participants (Part 1a single 20 mg fasted): 1 n
- TEAE Presyncope, participants (Part 1a single 20 mg fasted): 0 n
- TEAE Skin and subcutaneous tissue disorders, participants (Part 1a single 20 mg fasted): 0 n
- TEAE Skin irritation, participants (Part 1a single 20 mg fasted): 0 n
- TEAE Tachycardia, participants (Part 1a single 20 mg fasted): 1 n
- TEAE Thrombophlebitis, participants (Part 1a single 20 mg fasted): 0 n
- TEAE Vascular disorders, participants (Part 1a single 20 mg fasted): 0 n
- TEAE Ventricular extrasystoles, participants (Part 1a single 20 mg fasted): 0 n
- TEAE Vessel puncture site hypoaesthesia, participants (Part 1a single 20 mg fasted): 0 n
- TEAE Vessel puncture site pain, participants (Part 1a single 20 mg fasted): 0 n
- Any Grade ≥3 TEAE, participants (Part 1a single 30 mg fasted): 0 n
- Any TEAE, participants (Part 1a single 30 mg fasted): 3 n
- Any treatment-emergent AESI, participants (Part 1a single 30 mg fasted): 0 n
- Any treatment-emergent SAE, participants (Part 1a single 30 mg fasted): 0 n
- Dizziness, events (Part 1a single 30 mg fasted): 3 events
- TEAE Blood creatine phosphokinase increased, participants (Part 1a single 30 mg fasted): 0 n
- TEAE Cardiac disorders, participants (Part 1a single 30 mg fasted): 0 n
- TEAE Dermatitis contact, participants (Part 1a single 30 mg fasted): 1 n
- TEAE Dizziness, participants (Part 1a single 30 mg fasted): 2 n
- TEAE Eye disorders, participants (Part 1a single 30 mg fasted): 1 n
- TEAE Fatigue, participants (Part 1a single 30 mg fasted): 1 n
- TEAE General disorders and administration site conditions, participants (Part 1a single 30 mg fasted): 1 n
- TEAE Headache, participants (Part 1a single 30 mg fasted): 0 n
- TEAE Investigations, participants (Part 1a single 30 mg fasted): 0 n
- TEAE Keratitis, participants (Part 1a single 30 mg fasted): 1 n
- TEAE Medical device site dermatitis, participants (Part 1a single 30 mg fasted): 0 n
- TEAE Musculoskeletal and connective tissue disorders, participants (Part 1a single 30 mg fasted): 0 n
- TEAE Myalgia, participants (Part 1a single 30 mg fasted): 0 n
- TEAE Nervous system disorders, participants (Part 1a single 30 mg fasted): 2 n
- TEAE Presyncope, participants (Part 1a single 30 mg fasted): 0 n
- TEAE Skin and subcutaneous tissue disorders, participants (Part 1a single 30 mg fasted): 1 n
- TEAE Skin irritation, participants (Part 1a single 30 mg fasted): 0 n
- TEAE Tachycardia, participants (Part 1a single 30 mg fasted): 0 n
- TEAE Thrombophlebitis, participants (Part 1a single 30 mg fasted): 1 n
- TEAE Vascular disorders, participants (Part 1a single 30 mg fasted): 1 n
- TEAE Ventricular extrasystoles, participants (Part 1a single 30 mg fasted): 0 n
- TEAE Vessel puncture site hypoaesthesia, participants (Part 1a single 30 mg fasted): 0 n
- TEAE Vessel puncture site pain, participants (Part 1a single 30 mg fasted): 0 n
- Any Grade ≥3 TEAE, participants (Part 1a single 40 mg fasted): 0 n
- Any TEAE, participants (Part 1a single 40 mg fasted): 3 n
- Any treatment-emergent AESI, participants (Part 1a single 40 mg fasted): 0 n
- Any treatment-emergent SAE, participants (Part 1a single 40 mg fasted): 0 n
- Dizziness, events (Part 1a single 40 mg fasted): 1 event
- TEAE Blood creatine phosphokinase increased, participants (Part 1a single 40 mg fasted): 0 n
- TEAE Cardiac disorders, participants (Part 1a single 40 mg fasted): 1 n
- TEAE Dermatitis contact, participants (Part 1a single 40 mg fasted): 1 n
- TEAE Dizziness, participants (Part 1a single 40 mg fasted): 1 n
